Measured values taken from patent US5165931A, “Peptifluorin and neopeptifluorin” (E. R. Squibb & Sons, Inc., priority 1991, dated 1992).

Key:
Enterobacter cloacae = assay: agar dilution MIC assay, bacteria; format: cell-based; conditions: strain SC 8236; K-10 agar, 37° C., 18 hours
Procedure: (§1) The following methodology was used to determine the minimum inhibitory concentration (hereinafter referred to as MIC) of the compound of this invention against bacteria. The test organisms were grown in 20 ml of Antibiotic Assay Broth (Difco) by inoculating the broth (in tubes) with a loopful of the organism from a BHI (Difco) agar slant. The inoculated tubes were incubated at 37° C. for 18 to 24 hours. These cultures were assumed to contain 10^9 colony forming units (CFU) per ml. The cultures were diluted 1:100 to give a final inoculum level of 10^7 CFU; dilutions were made with Yeast Beef Broth (Difco). The test compound was dissolved in an appropriate diluent at a concentration of 1,000 μg/ml. Two-fold dilutions were made in Yeast Beef Broth (Difco), resulting in
(§2) a range from 1000 μg/ml to 0.5 μg/ml. A 1.5 ml portion of each dilution was placed into individual petri dishes to which 13.5 ml of K-10 agar was added. The composition of K-10 agar is:
(§3) The medium was sterilized at 121° C. for 15 minutes at 15 pounds psi.
(§4) The final drug concentration in the agar ranged from 100 μg/ml to 0.05 μg/ml. Organism growth control plates containing agar only were prepared and inoculated before and after the test plates. The organisms were applied to the agar surface of each plate with a Denly Multipoint Inoculator (which delivers approximately 0.001 ml of each inoculum) resulting in a final inoculum of 10^4 CFU on the agar surface.
(§5) The plates were incubated at 37° C. for 18 hours and the MICs determined. The MIC is the lowest concentration of compound inhibiting growth of the organism.
(§6) The results of the agar dilution assays with bacteria are: […]

Escherichia coli = assay: agar dilution MIC assay, bacteria; format: cell-based; conditions: K-10 agar, 37° C., 18 hours
Procedure: as §1, §2, §3, §4, §5, §6

Klebsiella pneumoniae = assay: agar dilution MIC assay, bacteria; format: cell-based; conditions: K-10 agar, 37° C., 18 hours
Procedure: as §1, §2, §3, §4, §5, §6

Micrococcus luteus = assay: agar dilution MIC assay, bacteria; format: cell-based; conditions: strain SC 2495; K-10 agar, 37° C., 18 hours
Procedure: as §1, §2, §3, §4, §5, §6

Salmonella typhosa = assay: agar dilution MIC assay, bacteria; format: cell-based; conditions: strain SC 1195; K-10 agar, 37° C., 18 hours
Procedure: as §1, §2, §3, §4, §5, §6

Shigella sonnei = assay: agar dilution MIC assay, bacteria; format: cell-based; conditions: strain SC 8449; K-10 agar, 37° C., 18 hours
Procedure: as §1, §2, §3, §4, §5, §6

Staphylococcus aureus = assay: agar dilution MIC assay, bacteria; format: cell-based; conditions: K-10 agar, 37° C., 18 hours
Procedure: as §1, §2, §3, §4, §5, §6

Streptococcus faecalis = assay: agar dilution MIC assay, bacteria; format: cell-based; conditions: strain SC 9011; K-10 agar, 37° C., 18 hours
Procedure: as §1, §2, §3, §4, §5, §6

Candida albicans = assay: agar dilution MIC assay, yeasts; format: cell-based; conditions: 37° C., 36-48 hours
Procedure: as §1, §2, §4, §5
(§7) The methodology described above was modified in the assay for activity against yeasts. Fresh F-4 slants of the test organisms were obtained from frozen vials (-70° C.). The cultures were inoculated into tubes of F-4 broth and incubated at 37° C. for 18 to 24 hours, at which time the average cell count was assumed to be 5×10^7 CFU per ml. These were diluted 1:50 with fresh F-4 broth to give an inoculum level of 1×10^6 CFU per mL. The organisms were then dispensed into a sterile template (0.8 ml per well) and delivered onto the surface of each plate containing test compound as described above with a Denly Multipoint Inoculator, resulting in a final inoculum of 10^3 CFU on the agar surface.
(§8) The composition of the F-4 broth is:
(§9) The medium was sterilized at 121° C. for 15 minutes at 15 psi.
(§10) F-4 agar has the same composition as the broth but with the addition of 15 g agar per liter.
(§11) The results of the yeast, agar dilution assays (determined after incubation at 37° C. for 36-48 hours) are: […]

Candida glabrata = assay: agar dilution MIC assay, yeasts; format: cell-based; conditions: strain SC 11,267; 37° C., 36-48 hours
Procedure: as §1, §2, §4, §5, §7, §8, §9, §10, §11

Candida krusei = assay: agar dilution MIC assay, yeasts; format: cell-based; conditions: strain SC 2967; 37° C., 36-48 hours
Procedure: as §1, §2, §4, §5, §7, §8, §9, §10, §11

Candida tropicalis = assay: agar dilution MIC assay, yeasts; format: cell-based; conditions: 37° C., 36-48 hours
Procedure: as §1, §2, §4, §5, §7, §8, §9, §10, §11

Saccharomyces cerevisiae = assay: agar dilution MIC assay, yeasts; format: cell-based; conditions: 37° C., 36-48 hours
Procedure: as §1, §2, §4, §5, §7, §8, §9, §10, §11

mevalonate kinase = assay: inhibition of mevalonate kinase from yeast; format: biochemical
bacteria = assay: antibacterial activity (general statement); format: cell-based
Procedure: as §1, §2
The final drug concentration in the agar ranged from 100 μg/ml to 0.05 μg/ml. Organism growth control plates containing agar only were prepared and inoculated before and after the test plates. […]
The plates were incubated at 37° C. for 18 hours and the MICs determined. […]

yeasts = assay: antifungal activity (general statement); format: cell-based
Procedure: as §7

Streptococcus agalactiae = assay: agar dilution MIC assay, bacteria; format: cell-based; conditions: strain SC 14,008; K-10 agar, 37° C., 18 hours
Procedure: as §1, §2, §3, §4, §5, §6

Substance | MIC (Enterobacter cloacae) | MIC (Escherichia coli; strain SC 8294) | MIC (Escherichia coli; strain SC 10,857) | MIC (Escherichia coli; strain SC 10,896) | MIC (Klebsiella pneumoniae; strain SC 9527) | MIC (Klebsiella pneumoniae; strain SC 10,440) | MIC (Micrococcus luteus) | MIC (Salmonella typhosa) | MIC (Shigella sonnei) | MIC (Staphylococcus aureus; strain SC 1276) | MIC (Staphylococcus aureus; strain SC 2399) | MIC (Staphylococcus aureus; strain SC 2400) | MIC (Streptococcus faecalis) | MIC (Candida albicans; strain SC 5314) | MIC (Candida albicans; strain SC 9177) | MIC (Candida albicans; strain SC 11,422) | MIC (Candida glabrata) | MIC (Candida krusei) | MIC (Candida tropicalis; strain SC 8159) | MIC (Candida tropicalis; strain SC 9861) | other results
peptifluorin | 25.0 µg/mL | > 100.0 µg/mL | 50.0 µg/mL | 12.5 µg/mL | > 100.0 µg/mL | 50.0 µg/mL | 6.3 µg/mL | > 100.0 µg/mL | 25.0 µg/mL | 6.3 µg/mL | 6.3 µg/mL | 6.3 µg/mL | 6.3 µg/mL | 12.5 µg/mL | 25.0 µg/mL | 12.5 µg/mL | 12.5 µg/mL | 100 µg/mL | 12.5 µg/mL | 3.1 µg/mL | MIC (Saccharomyces cerevisiae; strain SC 1600): 12.5 µg/mL; MIC (Saccharomyces cerevisiae; strain SC 12,955): 25.0 µg/mL; MIC (Saccharomyces cerevisiae; strain SGY 1139): 3.1 µg/mL; inhibiting mevalonate kinase from yeast (mevalonate kinase): moderately active; antibacterial activity (bacteria): broad spectrum antibacterial activity; antifungal activity (yeasts): antifungal activity
neopeptifluorin | 12.5 µg/mL | 50.0 µg/mL | 12.5 µg/mL | 12.5 µg/mL | > 100 µg/mL | 25.0 µg/mL | 6.3 µg/mL | 100 µg/mL | 25 µg/mL | 3.1 µg/mL | 6.3 µg/mL | 6.3 µg/mL | 6.3 µg/mL | 6.3 µg/mL | 25.0 µg/mL | 12.5 µg/mL | 25.0 µg/mL | 100 µg/mL | 6.3 µg/mL | 3.1 µg/mL | MIC (Streptococcus agalactiae): 6.3 µg/mL; MIC (Saccharomyces cerevisiae; strain SC 1600): 6.3 µg/mL; MIC (Saccharomyces cerevisiae; strain SC 12,955): 12.5 µg/mL; MIC (Saccharomyces cerevisiae; strain SGY 1139): 1.6 µg/mL; inhibiting mevalonate kinase from yeast (mevalonate kinase): moderately active; antibacterial activity (bacteria): broad spectrum antibacterial activity; antifungal activity (yeasts): antifungal activity
